What was measured:
[1] = system: K562 chronic myelogenous leukemia cells; experiment: MTT assay, in vitro inhibitory activity on cells; assay type: cell-based
Text: (§1) In this example, MTT assay was used to detect in vitro inhibitory activity of the compounds prepared according to the above examples on the cells. […] AP24534 was purchased from Shanghai Xinkuo Chemical Technology Co., Ltd., China.
(§2) Dimethyl sulfoxide (DMSO) is capable of dissolving formazan in cells, and absorbance value can be measured at a wavelength of 490 nm by an enzyme-linked immunometric meter, which reflects the number of living cells. Within a certain range of the number of cells, the amount of MTT crystals formed is proportional to the number of living cells.
(§3) 1. […] 2. Culturing in a 37° C., 5% CO2 incubator and keeping the cells adhering to the wall of the well. 3. […] 4. Carefully removing the supernatant, gently washing with PBS and discarding the supernatant again. 5. […] 6. Terminating culturing and carefully discarding the medium in each well. 7. Adding 150 μl dimethyl sulfoxide into each well, shaking for 10 minutes at low speed in a shaker, to make crystals fully dissolved. 8. Measuring the absorbance of each well at 490 nm by an enzyme-linked immunometric meter. 9. Calculating IC50 values.

[2] = system: Saos-2 human osteosarcoma cells; experiment: MTT assay, in vitro inhibitory activity on cells; assay type: cell-based; conditions: typically 48 hours
Text: as §1, §2, §3

[3] = system: Ovcar-3 human ovarian cancer cells; experiment: MTT assay, in vitro inhibitory activity on cells; assay type: cell-based; conditions: typically 48 hours
Text: as §1, §2, §3

[4] = system: MDA-MB-231 human breast cancer cells; experiment: MTT assay, in vitro inhibitory activity on cells; assay type: cell-based; conditions: typically 48 hours
Text: as §1, §2, §3

Human ABL1 (T315I) = molecular target: T1, Human ABL1 (T315I) (Homo sapiens, UniProt P00519, T315I); experiment: ABL1 (T315I) kinase activity, [γ-33P] ATP / Abltide radiometric assay; assay type: biochemical; conditions: ATP 1.0 μM, 120 minutes, room temperature
T1 construct: purchased Millipore Corporation, USA #14-522
Method: Kinase activity was determined according to the manufacturer's instructions. Peptide substrate is Abltide ([…]), purchased from Millipore Corporation, USA. Ion exchange chromatography paper P81 was purchased from Whatman Company, UK. [γ-33P] ATP was purchased from Perkin Elmer Company.
[γ-33P] ATP was added at room temperature, with final concentration of 1.0 μM, and the reaction was performed for 120 minutes. 20 μl aliquots were transferred onto the ion exchange chromatography paper P81. The paper was thoroughly washed with a 0.75% phosphoric acid solution three times, and then washed with acetone once. Finally, γ-33P radioactivity was measured.

[5] = Homo sapiens, K562, 48 h, typically 48 hours

SMILES	IC50 [1, 5]	other results
CNc1ncc2ccc(C#Cc3cc(C(=O)Nc4ccc(CN5CCN(CCO)CC5)c(C(F)(F)F)c4)ccc3C)cc2n1 [Example 15, 3-((2-methylaminoquinazolin-7-yl)ethynyl)-4-methyl-N-[4-((4-(2-hydroxyethyl)piperazin-1-yl)methyl)-3-trifluoromethylphenyl]benzamide]	2900 nM	
CNc1ncc2c(F)cc(C#Cc3cc(C(=O)Nc4ccc(CN5CCN(C)CC5)c(C(F)(F)F)c4)ccc3C)cc2n1 [Example 7, 3-((5-fluoro-2-methylaminoquinazolin-7-yl)ethynyl)-4-methyl-N-[4-((4-methylpiperazin-1-yl)methyl)-3-trifluoromethylphenyl]benzamide]	670 nM	IC50 [2]: 4700 nM; IC50 [3]: 2350 nM; IC50 [4]: 4140 nM
Cc1ccc(C(=O)Nc2ccc(CN3CCC(N(C)C)CC3)c(C(F)(F)F)c2)cc1C#Cc1ccc2nccnc2c1 [Example 21]	3310 nM	IC50 (Human ABL1 (T315I)): 24.3 nM
Cc1ccc(C(=O)Nc2ccc(CN3CCN(C)CC3)c(C(F)(F)F)c2)cc1C#Cc1cnc2cccnn12 [AP24534, reference compound]		IC50 [2]: 380 nM; IC50 [3]: 1210 nM; IC50 ([1]; Homo sapiens, K562, typically 48 hours): 4800 nM; IC50 [4]: 420 nM
Cc1ccc(C(=O)Nc2ccc(CN3CCN(C)CC3)c(C(F)(F)F)c2)cc1C#Cc1ccc2c(c1)nc(N)n2C [Example 22, 3-((2-amino-1-methyl-1H-benzo[d]imidazol-5-yl)ethynyl)-4-methyl-N-[(4-(4-methylpiperazin-1-yl)methyl)-3-trifluoromethylphenyl]benzamide]	8100 nM	
Cc1cn(-c2cc(NC(=O)c3ccc(F)c(C#Cc4cccc5ncncc45)c3)cc(C(F)(F)F)c2)cn1 [Example 24, 3-((quinazolin-5-yl)ethynyl)-4-fluoro-N-[3-(4-methyl-1H-imidazol-1-yl)-5-trifluoromethylphenyl]benzamide]	11400 nM	
CNC(=O)c1cc(Oc2ccc(NC(=O)c3ccc(C)c(C#Cc4cccc5ncncc45)c3)cc2)ccn1 [Example 29, 3-((quinazolin-5-yl)ethynyl)-4-methyl-N-[4-(2-(N-methylcarboxamido)pyridinyl-4-oxy)phenyl]benzamide]	24100 nM	
CNc1ncc2ccc(C#Cc3cc(C(=O)Nc4ccc(CN5CCN(C)CC5)c(C(F)(F)F)c4)ccc3C)cc2n1 [Example 6, 3-((2-methylaminoquinazolin-7-yl)ethynyl)-4-methyl-N-[4-((4-methylpiperazin-1-yl)methyl)-3-trifluoromethylphenyl]benzamide]	730 nM	IC50 [2]: 2100 nM; IC50 [3]: 8260 nM; IC50 [4]: 7890 nM
Cc1ccc(C(=O)Nc2ccc(CN3CCS(=O)(=O)CC3)c(C(F)(F)F)c2)cc1C#Cc1cccc2ncncc12 [Example 17]	8720 nM	
CNC(=O)c1cc(Oc2ccc(NC(=O)c3ccc(C)c(C#Cc4ccc5c(NC)ncnc5c4)c3)cc2)ccn1 [Example 30]	89100 nM	
CC(=O)Nc1ncc2ccc(C#Cc3cc(C(=O)Nc4ccc(CN5CCN(C)CC5)c(C(F)(F)F)c4)ccc3C)cc2n1 [Example 8, 3-((2-acetylaminoquinazolin-7-yl)ethynyl)-4-methyl-N-[4-((4-methylpiperazin-1-yl)methyl)-3-trifluoromethylphenyl]benzamide]	1600 nM	
Cc1ccc(C(=O)Nc2ccc(CN3CCN(C)CC3)c(C(F)(F)F)c2)cc1C#Cc1cccc2[nH]nc(N)c12 [Example 1, 3-(3-amino-1H-indazol-4-yl)ethynyl-4-methyl-N-[4-(4-methylpiperazin-1-yl)methyl-3-trifluoromethylphenyl]benzamide]	1870 nM	IC50 (Human ABL1 (T315I)): 6.48 nM
Cc1ccc(C(=O)Nc2ccc(CN3CC[C@@H](N(C)C)C3)c(C(F)(F)F)c2)cc1C#Cc1cccc2ncncc12 [Example 18, 3-((quinazolin-5-yl)ethynyl)-4-methyl-(R)—N-[4-((3-(dimethylamino)pyrrolidin-1-yl)methyl)-3-trifluoromethylphenyl]benzamide]		IC50 ([1]; typically 48 hours): 470 nM; IC50 (Human ABL1 (T315I)): 21.7 nM
Cc1ccc(C(=O)Nc2ccc(CN3CCN(C)CC3)c(C(F)(F)F)c2)cc1C#Cc1ccc2nccnc2c1 [Example 23]	2840 nM	IC50 (Human ABL1 (T315I)): 6 nM
CNc1ncnc2cc(C#Cc3cc(C(=O)Nc4ccc(CN5CCN(CCO)CC5)c(C(F)(F)F)c4)ccc3C)ccc12 [Example 14, 3-((4-methylaminoquinazolin-7-yl)ethynyl)-4-methyl-N-[4-((4-(2-hydroxyethyl)piperazin-1-yl)methyl)-3-trifluoromethylphenyl]benzamide]	5680 nM	
Cc1ccc(C(=O)Nc2ccc(CN3CCN(C)CC3)c(C(F)(F)F)c2)cc1C#Cc1ccc2ncncc2c1 [Example 2, 3-((quinazolin-6-yl)ethynyl)-4-methyl-N-[4-((4-methylpiperazin-1-yl)methyl)-3-trifluoromethylphenyl]benzamide]	3720 nM	
Cc1ccc(C(=O)Nc2ccc(CN3CCN(CCO)CC3)c(C(F)(F)F)c2)cc1C#Cc1cccc2ncncc12 [Example 16, 3-((quinazolin-5-yl)ethynyl)-4-methyl-N-[4-((4-(2-hydroxyethyl)piperazin-1-yl)methyl)-3-trifluoromethylphenyl]benzamide]	7030 nM	IC50 (Human ABL1 (T315I)): 12.4 nM
Cc1ccc(NC(=O)Nc2ccc(CN3CCN(C)CC3)c(C(F)(F)F)c2)cc1C#Cc1ccc2cncnc2c1 [Example 31]	1090 nM	
Cc1ccc(C(=O)Nc2ccc(CN3CCN(C)CC3)c(C(F)(F)F)c2)cc1C#Cc1cccc2nc(N)ncc12 [Example 27, 3-((2-aminoquinazolin-5-yl)ethynyl)-4-methyl-N-[(4-(4-methylpiperazin-1-yl)methyl)-3-trifluoromethylphenyl]benzamide]	9050 nM	
CC(=O)Nc1ncc2c(F)cc(C#Cc3cc(C(=O)Nc4ccc(CN5CCN(C)CC5)c(C(F)(F)F)c4)ccc3C)cc2n1 [Example 10, 3-((5-fluoro-2-acetylaminoquinazolin-7-yl)ethynyl)-4-methyl-N-[4-((4-methylpiperazin-1-yl)methyl)-3-trifluoromethylphenyl]benzamide]	6880 nM	
Cc1cn(-c2cc(NC(=O)c3ccc(C)c(C#Cc4cccc5ncncc45)c3)cc(C(F)(F)F)c2)cn1 [Example 20, 3-((quinazolin-5-yl)ethynyl)-4-methyl-N-[3-(4-methyl-1H-imidazol-1-yl)-5-trifluoromethylphenyl]benzamide]	1140 nM	IC50 (Human ABL1 (T315I)): 43.5 nM
CNc1ncnc2cc(C#Cc3cc(C(=O)Nc4ccc(CN5CCN(C)CC5)c(C(F)(F)F)c4)ccc3C)ccc12 [Example 12, 3-((4-methylaminoquinazolin-7-yl)ethynyl)-4-methyl-N-[4-((4-methylpiperazin-1-yl)methyl)-3-trifluoromethylphenyl]benzamide]	280 nM	IC50 (Human ABL1 (T315I)): 31.7 nM
Cc1ccc(C(=O)Nc2ccc(CN3CCC(N(C)C)C3)c(C(F)(F)F)c2)cc1C#Cc1cccc2ncncc12 (stereo in doubt) [Example 19, 3-((quinazolin-5-yl)ethynyl)-4-methyl-(S)—N-[4-((3-(dimethylamino)pyrrolidin-1-yl)methyl)-3-trifluoromethylphenyl]benzamide]		IC50 ([1]; typically 48 hours): 8100 nM
CNc1ncc2c(C#Cc3cc(C(=O)Nc4ccc(CN5CCN(C)CC5)c(C(F)(F)F)c4)ccc3C)cccc2n1 [Example 28, 3-((2-methylaminoquinazolin-5-yl)ethynyl)-4-methyl-N-[(4-((4-methyl)piperazin-1-yl)methyl)-3-trifluoromethylphenyl]benzamide]	15500 nM	

— US20150152088A1, “ALKYNYL HETEROAROMATIC COMPOUND AND USE THEREOF” (Nanjing Sanhome Pharmaceutical Co., Ltd., priority 2012, published 2015)
